Laboratory results reported in patent US5041567A, “Antibacterial monic acid derivatives” (Beecham Group plc, priority 1982, dated 1991).
Values after ≈ are worked out from the molar mass of the structure shown. Where two headings read alike, the source gives them in different places.

Legend:
[1] = test system: Staph. aureus 152 (pen. sens); assay: MIC against veterinary bacteria in vitro; conditions: Staphylococcus aureus, 18 h
Protocol: (§1) The activity of the compounds of the Examples against various veterinarily important bacteria, was assayed in vitro using two-fold serial dilutions in Diagnostic Sensitivity Test Agar inoculated with 10^4 organisms.

M. suipneumoniae MS 16 = assay: MIC against mycoplasma in vitro; type: cell-based; conditions: Mesomycoplasma hyopneumoniae, MS16, 144 h; M. suipneumoniae MS 16; 6 days, 37° C.; read-out: MIC
M. suipneumoniae JF 435 = assay: MIC against mycoplasma in vitro; type: cell-based; conditions: Mesomycoplasma hyopneumoniae, JF435, 144 h; M. suipneumoniae JF 435; 6 days, 37° C.; read-out: MIC
[2] = test system: Pasteurella multocida 1633; assay: MIC against human bacteria in vitro; type: cell-based; conditions: Pasteurella multocida 1633; 5% chocolated horse blood agar, 18 hours; read-out: MIC
E. coli E1 = assay: MIC against veterinary bacteria in vitro; conditions: Escherichia coli, E1, 18 h
Protocol: as §1

Staph. aureus W2827 = assay: MIC against human bacteria in vitro; type: cell-based; conditions: Staphylococcus aureus; Staph. aureus W2827; 5% chocolated horse blood agar, 18 hours; read-out: MIC
[3] = test system: Haemophilus influenzae Wy21; assay: MIC against human bacteria in vitro; type: cell-based; conditions: Haemophilus influenzae Wy21; 5% chocolated horse blood agar, 18 hours; read-out: MIC
S. typhimurium S18 = assay: MIC against veterinary bacteria in vitro; conditions: Salmonella enterica, TYPHIMURIUM, 18 h
Protocol: as §1

[4] = test system: M. suipneumoniae NCTC 10110; assay: MIC against mycoplasma in vitro; type: cell-based; conditions: Mesomycoplasma hyopneumoniae, NCTC10110, 144 h; M. suipneumoniae NCTC 10110; 6 days, 37° C.; read-out: MIC
Staph. aureus Oxford = assay: MIC against veterinary bacteria in vitro; conditions: Staphylococcus aureus, 18 h
Protocol: as §1

Bord. bronchiseptica B08 = assay: MIC against veterinary bacteria in vitro; conditions: Bordetella bronchiseptica, B08, 18 h
Protocol: as §1

M. gallisepticum S6 = assay: MIC against mycoplasma in vitro; type: cell-based; conditions: Mycoplasmoides gallisepticum, 144 h; M. gallisepticum S6; 6 days, 37° C.; read-out: MIC
[5] = test system: Erysipelothrix rhusiopathiae NCTC 8163; assay: MIC against veterinary bacteria in vitro; conditions: Erysipelothrix rhusiopathiae, NCTC8163, 18 h
Protocol: as §1

M. hyorhinis ATCC 23234 = assay: MIC against mycoplasma in vitro; type: cell-based; conditions: Mesomycoplasma hyorhinis, ATCC23234, 144 h; M. hyorhinis ATCC 23234; 6 days, 37° C.; read-out: MIC
M. suipneumoniae HK(2) = assay: MIC against mycoplasma in vitro; type: cell-based; conditions: Mesomycoplasma hyopneumoniae, 144 h; M. suipneumoniae HK(2); 6 days, 37° C.; read-out: MIC
[6] = test system: M. suipneumoniae ATCC 25095; assay: MIC against mycoplasma in vitro; type: cell-based; conditions: Mesomycoplasma hyopneumoniae, ATCC25095, 144 h; M. suipneumoniae ATCC 25095; 6 days, 37° C.; read-out: MIC
Staph. aureus Russell = assay: MIC against human bacteria in vitro; type: cell-based; conditions: Staphylococcus aureus; Staph. aureus Russell; 5% chocolated horse blood agar, 18 hours; read-out: MIC
E. coli NCTC 10418 = assay: MIC against veterinary bacteria in vitro; conditions: Escherichia coli, NCTC10418, 18 h
Protocol: as §1

Strep. pneumoniae CN33 = assay: MIC against human bacteria in vitro; type: cell-based; conditions: Streptococcus pneumoniae
Strep. agalactiae 2788-B = assay: MIC against human bacteria in vitro; type: cell-based; conditions: Streptococcus agalactiae; Strep. agalactiae 2788-B; 5% chocolated horse blood agar, 18 hours; read-out: MIC
Strep. agalactiae SPA1 = assay: MIC against veterinary bacteria in vitro; conditions: Streptococcus agalactiae, SPA1, 18 h
Protocol: as §1

Past. multocida PA2 = assay: MIC against veterinary bacteria in vitro; conditions: Pasteurella multocida, PA2, 18 h
Protocol: as §1

Sarcina lutea 8340 = assay: MIC against human bacteria in vitro; type: cell-based; conditions: Micrococcus luteus; Sarcina lutea 8340; 5% chocolated horse blood agar, 18 hours; read-out: MIC
[7] = test system: Strep. suis (group D) SPS11; assay: MIC against veterinary bacteria in vitro; conditions: Streptococcus suis, 18 h
Protocol: as §1

[8] = test system: Ps. aeruginosa NCTC 10662; assay: MIC against human bacteria in vitro; type: cell-based; conditions: Pseudomonas aeruginosa, NCTC10662; Ps. aeruginosa NCTC 10662; 5% chocolated horse blood agar, 18 hours; read-out: MIC
E. coli ESS = assay: MIC against human bacteria in vitro; type: cell-based; conditions: Escherichia coli
M. suipneumoniae UCD 1 = assay: MIC against mycoplasma in vitro; type: cell-based; conditions: Mesomycoplasma hyopneumoniae, UCD1, 144 h; M. suipneumoniae UCD 1; 6 days, 37° C.; read-out: MIC
[9] = test system: M. bovigenitalium ATCC 14173; assay: MIC against mycoplasma in vitro; type: cell-based; conditions: 144 h; M. bovigenitalium ATCC 14173; 6 days, 37° C.; read-out: MIC
M. suipneumoniae TAM 6N = assay: MIC against mycoplasma in vitro; type: cell-based; conditions: Mesomycoplasma hyopneumoniae, TAM6N, 144 h; M. suipneumoniae TAM 6N; 6 days, 37° C.; read-out: MIC
M. pneumoniae ATCC 15492 = assay: MIC against mycoplasma in vitro; type: cell-based; conditions: Mycoplasmoides pneumoniae, ATCC15492, 144 h; M. pneumoniae ATCC 15492; 6 days, 37° C.; read-out: MIC
S. dublin S7 = assay: MIC against veterinary bacteria in vitro; conditions: Salmonella enterica, S7, 18 h
Protocol: as §1

M. suipneumoniae NB12 = assay: MIC against mycoplasma in vitro; type: cell-based; conditions: Mesomycoplasma hyopneumoniae, 144 h; M. suipneumoniae NB12; Friis broth, 0.9% agarose, 6 days, 37° C.; read-out: MIC
Bord. bronchiseptica B09 = assay: MIC against veterinary bacteria in vitro; conditions: Bordetella bronchiseptica, B09, 18 h
Protocol: as §1

| Structure (SMILES) | MIC [1] [µg/mL] | MIC (M. suipneumoniae MS 16) [µg/mL] | MIC (M. suipneumoniae JF 435) [µg/mL] | MIC [2] [µg/mL] | MIC (E. coli E1) [µg/mL] | MIC (Staph. aureus W2827) [µg/mL] | MIC [3] [µg/mL] | MIC (S. typhimurium S18) [µg/mL] | MIC [4] [µg/mL] | MIC (Staph. aureus Oxford) [µg/mL] | MIC (Bord. bronchiseptica B08) [µg/mL] | MIC (M. gallisepticum S6) [µg/mL] | MIC [5] [µg/mL] | MIC (M. hyorhinis ATCC 23234) [µg/mL] | MIC (M. suipneumoniae HK(2)) [µg/mL] | MIC [6] [µg/mL] | MIC (Staph. aureus Russell) [µg/mL] | MIC (E. coli NCTC 10418) [µg/mL] | MIC (Strep. agalactiae 2788-B) [µg/mL] | MIC (Past. multocida PA2) [µg/mL] | further results |
| --- | --- | --- | --- | --- | --- | --- | --- | --- | --- | --- | --- | --- | --- | --- | --- | --- | --- | --- | --- | --- | --- |
| COC(=O)c1ccc(-c2cnc(/C=C(\C)C[C@@H]3OC[C@H](C[C@@H]4O[C@H]4[C@@H](C)[C@H](C)O)[C@@H](O)[C@H]3O)o2)cc1 [Example 16, 5-p-Methoxycarbonylphenyl-2-(1-normon-2-yl) oxazole A] | 1.25 (≈ 2.49 µM) | 0.25 (≈ 0.498 µM) | 0.5 (≈ 0.997 µM) | 16 (≈ 31.9 µM) | > 80 | 4 (≈ 7.97 µM) | 2 (≈ 3.99 µM) | > 80 | 0.5 (≈ 0.997 µM) | 1.25 (≈ 2.49 µM) | > 80 | 2.5 (≈ 4.98 µM) | 80 (≈ 159 µM) | 0.25 (≈ 0.498 µM) | 0.5 (≈ 0.997 µM) | 0.25 (≈ 0.498 µM) | 4 (≈ 7.97 µM) | > 80 | 4 (≈ 7.97 µM) | < 0.039 | MIC (Strep. pneumoniae CN33; Strep. pneumoniae CN33, 5% chocolated horse blood agar, 18 hours, read-out: MIC): 4 µg/mL (≈ 7.97 µM); MIC (Strep. agalactiae SPA1): 1.25 µg/mL (≈ 2.49 µM); MIC (Sarcina lutea 8340): > 64 µg/mL; MIC [7]: 20 µg/mL (≈ 39.9 µM); MIC [8]: > 64 µg/mL; MIC (E. coli ESS; E. coli ESS, 5% chocolated horse blood agar, 18 hours, read-out: MIC): 32 µg/mL (≈ 63.8 µM); MIC (M. suipneumoniae UCD 1): 0.5 µg/mL (≈ 0.997 µM); MIC [9]: 0.1 µg/mL (≈ 0.199 µM); MIC (M. suipneumoniae TAM 6N): 0.5 µg/mL (≈ 0.997 µM); MIC (M. pneumoniae ATCC 15492): 1 µg/mL (≈ 1.99 µM); MIC (S. dublin S7): > 80 µg/mL; MIC (M. suipneumoniae NB12): 0.5 µg/mL (≈ 0.997 µM); MIC (Bord. bronchiseptica B09): 40 µg/mL (≈ 79.7 µM) |
| C/C(=C\c1nc(C)c(C)o1)C[C@@H]1OC[C@H](C[C@@H]2O[C@H]2[C@@H](C)[C@H](C)O)[C@@H](O)[C@H]1O [Example 39, 4,5-Dimethyl-2-(1-normon-2-yl)oxazole A] | > 80 | > 10 | > 10 | 50 (≈ 126 µM) | > 80 | > 100 | 2.5 (≈ 6.32 µM) | > 80 | > 10 | > 80 | > 80 | > 10 | > 80 | > 10 | > 10 | > 10 | > 100 | > 80 | > 100 | 40 (≈ 101 µM) | MIC (Strep. pneumoniae CN33; CN33, 18 h): 100 µg/mL (≈ 253 µM); MIC (Sarcina lutea 8340): > 100 µg/mL; MIC [7]: > 80 µg/mL; MIC [8]: > 100 µg/mL; MIC (E. coli ESS; 18 h): > 100 µg/mL; MIC (M. suipneumoniae UCD 1): > 10 µg/mL; MIC [9]: 5 µg/mL (≈ 12.6 µM); MIC (M. suipneumoniae TAM 6N): > 10 µg/mL; MIC (M. pneumoniae ATCC 15492): > 10 µg/mL; MIC (S. dublin S7): > 80 µg/mL; MIC (M. suipneumoniae NB12): > 10 µg/mL; MIC (Bord. bronchiseptica B09): > 80 µg/mL |
